From PubChem BioAssay AID330 (DTP/NCI, 2004) come the findings set out here.

Where “and” joins values, the source holds several entries; their conditions need not be identical. Equal values may be shown once. Inconclusive results and toxic doses are left out. Peptide text beside a SMILES is read from it. * marks the point of attachment. Boc = CC(C)(C)OC(=O)*

This experiment deals with P388 leukemia ip, CD2F1 mice, survival T/C. Put plainly: NCI In Vivo Anticancer Drug Screen. Data for tumor model P388 Leukemia (intraperitoneal) in CD2F1 (CDF1) mice. As to conditions: endpoint: median survival time, higher = longer survival. An outline of the steps:
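Mice carrying the transplanted tumor received test compound or vehicle. Survival was recorded in each group, and the value is the treated-group measurement divided by that of the vehicle-treated control group.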

Where [1] appears, read: dose: 50.0 mg/kg/injection, schedule: Q01DX005 (ip), vehicle: Klucel (hydroxypropylcellulose) (HPC).
Setting [2] is: dose: 100.0 mg/kg/injection, schedule: Q01DX005 (ip), vehicle: Klucel (hydroxypropylcellulose) (HPC).
Where [3] appears, read: dose: 200.0 mg/kg/injection, schedule: Q01DX005 (ip), vehicle: Klucel (hydroxypropylcellulose) (HPC).
Where [4] appears, read: dose: 50.0 mg/kg/injection, schedule: Q01DX005 (ip), vehicle: saline with Tween-80.
Setting [5] is: dose: 100.0 mg/kg/injection, schedule: Q01DX005 (ip), vehicle: saline with Tween-80.
Setting [6] is: dose: 200.0 mg/kg/injection, schedule: Q01DX005 (ip), vehicle: saline with Tween-80.
The mark [7] stands for this setting: dose: 60.0 mg/kg/injection, schedule: Q01DX005 (ip), vehicle: saline with Tween-80.
Setting [8] is: dose: 120.0 mg/kg/injection, schedule: Q01DX005 (ip), vehicle: saline with Tween-80.
The mark [9] stands for this setting: dose: 50.0 mg/kg/injection, schedule: Q01DX009 (ip), vehicle: saline with Tween-80.
Where [10] appears, read: dose: 12.5 mg/kg/injection, schedule: Q01DX005 (ip), vehicle: saline with Tween-80.
[11] abbreviates: dose: 25.0 mg/kg/injection, schedule: Q01DX005 (ip), vehicle: saline with Tween-80.

On to `c1ncn(C23CC4CC(CC(C4)C2)C3)n1`, for which the T/C (dose: 1.56 mg/kg/injection, schedule: Q01DX001 (ip), vehicle: Klucel (hydroxypropylcellulose) (HPC)) was 106 % of control; the T/C (dose: 3.12 mg/kg/injection, schedule: Q01DX001 (ip), vehicle: Klucel (hydroxypropylcellulose) (HPC)) was 104 % of control; the T/C (dose: 6.25 mg/kg/injection, schedule: Q01DX001 (ip), vehicle: Klucel (hydroxypropylcellulose) (HPC)) was 107 % of control and 96 % of control.
In the case of `O=C(NC(Cc1ccc(Cl)cc1)C(=O)O)c1ccc(Br)cc1` (configuration not stated), the T/C under setting [1] is 100 % of control, the T/C under setting [2] was 96 % of control and the T/C under setting [3] was 99 % of control.
Taken in the same sequence, the figures for `C=C(C)COc1ccc(C)cc1Br` were 101 % of control, 103 % of control and 113 % of control.
Regarding `CCCCCCC1(C(=O)OCCN(CC)CC)CCCCC1`, the T/C was 101 % of control under setting [4] and 105 % of control under setting [5].
In the case of `CC(C)(C)OC(=O)NCCCCC(NC(=O)OCc1ccccc1)C(=O)ON1C(=O)CCC1=O` (configuration not stated), the T/C is 101 % of control under setting [4], 102 % of control under setting [5] and 107 % of control under setting [6].
Take `CCCC1CCCCN1Cc1ccccc1` (configuration not stated): the T/C by setting is: under setting [4], 107 % of control; under setting [5], 104 % of control.
As for `CN(C)c1ccc(/C=C/C2=[N+](C)c3ccccc3C2(C)C)cc1`, the T/C by setting is: (dose: 0.03 mg/kg/injection, schedule: Q01DX009 (ip), vehicle: saline) 110 % of control; (dose: 0.07 mg/kg/injection, schedule: Q01DX009 (ip), vehicle: saline) 97 % of control.
In the case of `COC(=O)c1c(O)c(OC)c(-c2ccccc2)[nH]c1=O`, the T/C was 89 % of control under setting [7] and 89 % of control under setting [8].
As for `CC(C)(C)c1cc2c(c(C(C)(C)C)c1)[O][Sb]([c]1ccccc1)([c]1ccccc1)([c]1ccccc1)[NH]2`, the T/C under setting [9] is 110 % of control and the T/C (dose: 100.0 mg/kg/injection, schedule: Q01DX009 (ip), vehicle: saline with Tween-80) is 115 % of control.
For `CCCCN(CCCC)c1ccc(C(=NC(C)CCCN(CC)CC)c2ccc(N(C)C)cc2)cc1` (configuration not stated), the T/C is 107 % of control (dose: 6.25 mg/kg/injection, schedule: Q01DX005 (ip), vehicle: saline with Tween-80); 98 % of control under setting [10]; 100 % of control under setting [11].
As for `CSCCC(NC(=O)OC(C)(C)C)C(=O)NC(CCSC)C(=O)NC(C)C(=O)O` (stereo not drawn) (Boc-Met-Met-Ala-OH; configuration not given here), the T/C by setting is: under setting [1], 98 % of control; under setting [2], 102 % of control; under setting [3], 102 % of control.
For the compound `O=c1[nH]c(=O)c2nc(-c3ccc(Cl)c(Cl)c3)cnc2[nH]1`, the T/C was 100 % of control (dose: 100.0 mg/kg/injection, schedule: Q01DX001 (ip), vehicle: saline); 116 % of control (dose: 200.0 mg/kg/injection, schedule: Q01DX001 (ip), vehicle: saline); 91 % of control (dose: 400.0 mg/kg/injection, schedule: Q01DX001 (ip), vehicle: saline).
With `O=[N+]([O-])c1ccc2c(c1)N=Cc1ccccc1NCCNc1ccccc1C=N2`, the T/C was 95 % of control (dose: 50.0 mg/kg/injection, schedule: Q01DX009 (ip), vehicle: saline); 87 % of control and 90 % of control (dose: 100.0 mg/kg/injection, schedule: Q01DX009 (ip), vehicle: saline); 92 % of control and 93 % of control (dose: 200.0 mg/kg/injection, schedule: Q01DX009 (ip), vehicle: saline).
With `O=C[c-]1[c-][c-][c-][c-]1.[Fe+2].[c-]1[c-][c-][cH-][c-]1`, the T/C reads like this: (dose: 6.25 mg/kg/injection, schedule: Q01DX009 (ip), vehicle: saline with Tween-80) 106 % of control; (dose: 12.5 mg/kg/injection, schedule: Q01DX009 (ip), vehicle: saline with Tween-80) 95 % of control; (dose: 25.0 mg/kg/injection, schedule: Q01DX009 (ip), vehicle: saline with Tween-80) 97 % of control; under setting [9], 99 % of control.
As for `O=C1Nc2ccccc2/C1=N\N=c1/scc(-c2ccccc2)n1-c1ccccc1`, the T/C reads like this: under setting [7], 101 % of control and 89 % of control; under setting [8], 100 % of control; (dose: 240.0 mg/kg/injection, schedule: Q01DX005 (ip), vehicle: saline with Tween-80) 101 % of control and 97 % of control.
`CSCCC(NC(=O)OC(C)(C)C)C(=O)ON1C(=O)CCC1=O` (configuration not stated): the T/C is 101 % of control and 107 % of control under setting [10]; 103 % of control and 107 % of control under setting [11]; 117 % of control and 98 % of control under setting [4]; 106 % of control and 113 % of control and 116 % of control under setting [5]; 107 % of control and 97 % of control under setting [6].
In the case of `CC1(C)OOC(C)(O)C1Br` (configuration not stated), the T/C reads like this: (dose: 50.0 mg/kg/injection, schedule: Q04DX003 (ip), vehicle: saline) 95 % of control; (dose: 100.0 mg/kg/injection, schedule: Q04DX003 (ip), vehicle: saline) 103 % of control; (dose: 200.0 mg/kg/injection, schedule: Q04DX003 (ip), vehicle: saline) 95 % of control.
Turning to `O=C(O)CCCC(=O)NC1CC2c3ccccc3C1c1ccccc12` (configuration not stated), the T/C by setting is: (dose: 75.0 mg/kg/injection, schedule: Q01DX009 (ip), vehicle: saline with Tween-80) 100 % of control; (dose: 100.0 mg/kg/injection, schedule: Q04DX003 (ip), vehicle: saline sonified) 100 % of control; (dose: 150.0 mg/kg/injection, schedule: Q01DX009 (ip), vehicle: saline with Tween-80) 100 % of control; (dose: 200.0 mg/kg/injection, schedule: Q04DX003 (ip), vehicle: saline sonified) 105 % of control; (dose: 400.0 mg/kg/injection, schedule: Q04DX003 (ip), vehicle: saline sonified) 100 % of control.
Take `CCn1c2ccccc2c2cc(N=Nc3ccc(N)c4ccccc34)ccc21`: the T/C is 97 % of control (dose: 100.0 mg/kg/injection, schedule: Q04DX003 (ip), vehicle: Klucel (hydroxypropylcellulose) (HPC)); 101 % of control (dose: 200.0 mg/kg/injection, schedule: Q04DX003 (ip), vehicle: Klucel (hydroxypropylcellulose) (HPC)); 94 % of control (dose: 400.0 mg/kg/injection, schedule: Q04DX003 (ip), vehicle: Klucel (hydroxypropylcellulose) (HPC)).
Consider `COC(=O)Nn1cc(C(C(C)=O)C(C)=O)c(C(C)=O)c1C`, for which the T/C is, setting by setting: under setting [1], 99 % of control; under setting [2], 89 % of control.
As to `COc1ccc(NC(=O)C2C(=O)N(c3ccc(OC)cc3)C(=O)/C2=N/N=C(N)N)cc1` (configuration not stated), the T/C is, setting by setting: (dose: 25.0 mg/kg/injection, schedule: Q04DX002 (ip), vehicle: saline with Tween-80) 99 % of control; (dose: 50.0 mg/kg/injection, schedule: Q04DX002 (ip), vehicle: saline with Tween-80) 101 % of control; (dose: 100.0 mg/kg/injection, schedule: Q04DX002 (ip), vehicle: saline with Tween-80) 98 % of control and 101 % of control.
